One test deals with Mcl-1/Bim interaction (Homo sapiens (Human), UniProt Q07820). Kind of test: Cell Free Mcl-1: Bim Affinity Assay (Mcl-1 HTRF). Format: binding. Conditions: TR-FRET, recombinant human Mcl-1(171-327), biotin-Bim(51-76); read-out: Mel-1 HTRF IC50. As for the experimental part: Cell Free Mcl-1: Bim Affinity Assay (Mcl-1 HTRF)
The inhibition of the Mcl-1/Bim interaction was measured using a time-resolved fluorescence resonance energy transfer (TR-FRET) assay. The recombinant human Mcl-1 (C-terminally 6×His tagged Mcl-1 containing residues 171-327) was generated at Amgen Inc (Thousand Oaks, Calif.). A biotinylated peptide derived from human Bim (residues 51-76) was purchased from CPC Scientific (San Jose, Calif.). The TR-FRET assay was conducted in a 384-well white OptiPlate™ (PerkinElmer, Waltham, Mass.) in a total volume of 40 μL. The reaction mixture contained 0.1 nM Mcl-1(171-327), 0.05 nM biotin-Bim(51-76), 0.05 nM LANCER Eu-W1024 Anti-6×His (PerkinElmer), 0.072 nM Streptavidin-Xlent (Cisbio, Bedford, Mass.), and serially diluted test compounds in the binding buffer of 20 mM Hepes, pH 7.5, 150 mM NaCl, 0.016 mM Brij©35, and 1 mM dithiothreitol. Test compounds were pre-incubated with Mcl-1(171-327) and biotin-Bim (51-76) for 60 min before addition of the detection mixture (LANCE Eu-W1024 Anti-6×His and Streptavidin-Xlent). The reaction plates were further incubated overnight and then were read on an Envision® multimode reader (PerkinElmer). Fluorescence signals were measured at 620 nm (40-nm bandwidth) and 665 nm (7.5-nm bandwidth) with a 60 μs delay after excitation at 320 nm (75-nm bandwidth). The signal ratio at 665/620 nm corresponded to the Mcl-1/Bim interaction and was used in all data analyses. The IC50 values of test compounds were determined from duplicate data by analyzing competition curves using a four-parameter sigmoidal model in GraphPad Prism (GraphPad Software, San Diego, Calif.) or in Genedata Screener® (Genedata, Basel, Switzerland).
For orientation: TR-FRET usually uses a lanthanide donor and a delayed reading to cut background.

For a further test, the system named is OPM-2. Kind of test: Cell Viability Assay (OPM-2 10 FBS). It counts as cell-based, human. Conditions: OPM-2 cells, CellTiter-Glo, read-out: OPM-2 10% FBS IC50 IP. The method, boiled down: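 OPM-2 myeloma cells seeded at 3000 cells/well in RPMI 1640 with 10% FBS and exposed to serially diluted compounds for 16 h at 37° C., 5% CO2.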

The text below walks through data of patent US11364248B2 (AMGEN INC., priority 2017, dated 2022).

Molecules are shown by their SMILES. Like-named read-outs stand apart in the source and are kept apart here.

Broadly, the IC50 is the concentration that gives 50% inhibition.

Chain of Mcl-1/Bim interaction (Q07820 171-327): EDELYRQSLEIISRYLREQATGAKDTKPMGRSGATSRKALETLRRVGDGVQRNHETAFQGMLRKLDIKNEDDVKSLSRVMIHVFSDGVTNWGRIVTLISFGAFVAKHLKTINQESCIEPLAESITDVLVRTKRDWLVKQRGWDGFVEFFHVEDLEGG

With `C[C@@H]1[C@@H](C)CCC[C@H]([C@H]2OC[C@@H](N3CCCC3)CO2)[C@@H]2CC[C@H]2CN2C[C@@]3(CCCc4cc(Cl)ccc43)COc3ccc(cc32)C(=O)NS1(=O)=O` [Example 19, (1S,3′R,6′R,7′S,11′S,12′R)-6-chloro-11′,12′-dimethyl-7′-(cis-5-(1-pyrrolidinyl)-1,3-dioxan-2-yl)-3,4-dihydro-2H,15′H-spiro[naphthalene-1,22′-[20]oxa[13]thia[1,14]diazatetracyclo [14.7.2.0~3,6~.0~19,24~]pentacosa[16,18,24]trien]-15′-one 13′,13′-dioxide], the values for the IC50 on Mcl-1/Bim interaction and with OPM-2 (16 h) were 0.00105 µM and 0.527 µM, respectively.
`CC(=O)N1C[C@@H]2O[C@@H]([C@H]3CCC[C@H](C)[C@@H](C)S(=O)(=O)NC(=O)c4ccc5c(c4)N(C[C@@H]4CC[C@H]43)C[C@@]3(CCCc4cc(Cl)ccc43)CO5)O[C@@H]2C1` (single isomer, unassigned) [Example 39]: the IC50 on Mcl-1/Bim interaction was found to be 0.000375 µM; in the test with OPM-2 (16 h) it was 0.578 µM.
For `C[C@@H]1[C@@H](C)CCC[C@H]([C@H]2OC[C@H](O)CO2)[C@@H]2CC[C@H]2CN2C[C@@]3(CCCc4cc(Cl)ccc43)COc3ccc(cc32)C(=O)NS1(=O)=O` [Example 11, (1S,3′R,6′R,7′S,11′S,12′R)-6-chloro-7′-(trans-5-hydroxy-1,3-dioxan-2-yl)-11′,12′-dimethyl-3,4-dihydro-2H,15′H-spiro[naphthalene-1,22′-[20]oxa[13]thia[1,14]diazatetracyclo [14.7.2.0~3,6~.0~19,24~]pentacosa[16,18,24]trien]-15′-one 13′,13′-dioxide], the IC50 at Mcl-1/Bim interaction was 0.00029 µM; with OPM-2 (16 h), 0.26 µM.
For the molecule `C[C@@H]1[C@@H](C)CCC[C@@H]([C@H]2OC[C@@H](N3CCC3(C)C)CO2)[C@@H]2CC[C@H]2CN2C[C@@]3(CCCc4cc(Cl)ccc43)COc3ccc(cc32)C(=O)NS1(=O)=O` (single isomer, unassigned) [Example 64], the IC50 on Mcl-1/Bim interaction came out at 0.0049 µM; with OPM-2 (16 h), 7.49 µM.
The like results for `C[C@@H]1[C@@H](C)CCC[C@H]([C@H]2OC[C@H](N)CO2)[C@@H]2CC[C@H]2CN2C[C@@]3(CCCc4cc(Cl)ccc43)COc3ccc(cc32)C(=O)NS1(=O)=O` (relative stereo) [Example 18] were, in that order, 0.00137 µM and 1.05 µM.
Turning to `COC[C@H]1[C@@H](C)CCC[C@H]([C@H]2OC[C@@H](N(C)C)CO2)[C@@H]2CC[C@H]2CN2C[C@@]3(CCCc4cc(Cl)ccc43)COc3ccc(cc32)C(=O)NS1(=O)=O` [Example 87, (1S,3′R,6′R,7′S,11′S,12′R)-6-chloro-7′-(cis-5-(dimethylamino)-1,3-dioxan-2-yl)-12′-(methoxymethyl)-11′-methyl-3,4-dihydro-2H,15′H-spiro[naphthalene-1,22′-[20]oxa[13]thia[1,14]diazatetracyclo [14.7.2.0~3,6~.0~19,24~]pentacosa[16,18,24]trien]-15′-one 13′,13′-dioxide], the IC50 on Mcl-1/Bim interaction came out at 0.00571 µM; in the test with OPM-2 (16 h) it was 0.735 µM.
As for `CC(=O)N1C[C@@H]2O[C@H]([C@H]3CCC[C@H](C)[C@@H](C)S(=O)(=O)NC(=O)c4ccc5c(c4)N(C[C@@H]4CC[C@H]43)C[C@@]3(CCCc4cc(Cl)ccc43)CO5)O[C@@H]2C1` (stereo in doubt) [Example 16, (1S,3′R,6′R,7′R,11′S,12′R)-7′-((2r,3aR,6aS)-5-acetyltetrahydro-3aH-[1,3]dioxolo[4,5-c]pyrrol-2-yl)-6-chloro-11′,12′-dimethyl-3,4-dihydro-2H,15′H-spiro[naphthalene-1,22′-[20]oxa[13]thia[1,14]diazatetracyclo [14.7.2.0~3,6~.0~19,24~]pentacosa[16,18,24]trien]-15′-one 13′,13′-dioxide], the IC50 worked out at 0.000194 µM on Mcl-1/Bim interaction and 0.262 µM in the test on OPM-2 (Homo sapiens, OPM-2, 16 h).
As to `C[C@H]1CCC[C@H]([C@H]2OC[C@@H](N(C)C)CO2)[C@@H]2CC[C@H]2CN2C[C@@]3(CCCc4cc(Cl)ccc43)COc3ccc(cc32)C(=O)NS(=O)(=O)C1` (stereo in doubt) [Example 77], the IC50 was 0.00265 µM at Mcl-1/Bim interaction and 0.595 µM in the test with OPM-2 (Homo sapiens, OPM-2, 16 h).
As for `C[C@@H]1[C@@H](C)CCC[C@@H]([C@H]2OC[C@H](CN(C)C)O2)[C@@H]2CC[C@H]2CN2C[C@@]3(CCCc4cc(Cl)ccc43)COc3ccc(cc32)C(=O)NS1(=O)=O` (single isomer, unassigned) [Example 34], the IC50 was determined as 0.0111 µM at Mcl-1/Bim interaction and 5.83 µM in the test on OPM-2 (16 h).
Take `C[C@@H]1[C@@H](C)CCC[C@H]([C@H]2OC[C@@H](N(C)C3CC3)CO2)[C@@H]2CC[C@H]2CN2C[C@@]3(CCCc4cc(Cl)ccc43)COc3ccc(cc32)C(=O)NS1(=O)=O` [Example 70, (1S,3′R,6′R,7′S,11′S,12′R)-6-chloro-7′-(cis-5-(cyclopropyl(methyl)amino)-1,3-dioxan-2-yl)-11′,12′-dimethyl-3,4-dihydro-2H,15′H-spiro[naphthalene-1,22′-[20]oxa[13]thia[1,14]diazatetracyclo [14.7.2.0~3,6~.0~19,24~]pentacosa[16,18,24]trien]-15′-one 13′,13′-dioxide]: the IC50 is 0.00131 µM at Mcl-1/Bim interaction and 1.58 µM with OPM-2 (16 h).
Turning to `CN[C@H]1CO[C@H]([C@H]2CCC[C@H](C)[C@@H](C)S(=O)(=O)NC(=O)c3ccc4c(c3)N(C[C@@H]3CC[C@H]32)C[C@@]2(CCCc3cc(Cl)ccc32)CO4)OC1` [Example 49, (1S,3′R,6′R,7′S,11′S,12′R)-6-chloro-11′,12′-dimethyl-7′-(trans-5-(methylamino)-1,3-dioxan-2-yl)-3,4-dihydro-2H,15′H-spiro[naphthalene-1,22′-[20]oxa[13]thia[1,14]diazatetracyclo [14.7.2.0~3,6~.0~19,24~]pentacosa[16,18,24]trien]-15′-one 13′,13′-dioxide], the IC50 at Mcl-1/Bim interaction stood at 0.00152 µM; in the test with OPM-2 (16 h) it was 0.966 µM.
The like results for `C[C@@H]1[C@@H](C)CCC[C@H]([C@H]2OC[C@H](O)CO2)[C@@H]2CC[C@H]2CN2C[C@@]3(CCCc4cc(Cl)ccc43)COc3ccc(cc32)C(=O)NS1(=O)=O` [Example 12, (1S,3′R,6′R,7′S,11′S,12′R)-6-chloro-7′-(trans-5-hydroxy-1,3-dioxan-2-yl)-11′,12′-dimethyl-3,4-dihydro-2H,15′H-spiro[naphthalene-1,22′-[20]oxa[13]thia[1,14]diazatetracyclo [14.7.2.0~3,6~.0~19,24~]pentacosa[16,18,24]trien]-15′-one 13′,13′-dioxide] were, in that order, 0.000382 µM and 0.668 µM.
For `CN[C@H]1CO[C@@H]([C@H]2CCC[C@H](C)[C@@H](C)S(=O)(=O)NC(=O)c3ccc4c(c3)N(C[C@@H]3CC[C@H]32)C[C@@]2(CCCc3cc(Cl)ccc32)CO4)OC1` (relative stereo) [Example 42], the IC50 on Mcl-1/Bim interaction turned out to be 0.000617 µM; with OPM-2 (16 h) it was 0.217 µM.
Take `C[C@@H]1[C@@H](C)CCC[C@H]([C@H]2OC[C@@H](N3CCCC3)CO2)[C@@H]2CC[C@H]2CN2C[C@@]3(CCCc4cc(Cl)ccc43)COc3ccc(cc32)C(=O)NS1(=O)=O` [Example 22, (1S,3′R,6′R,7′S,11′S,12′R)-6-chloro-11′,12′-dimethyl-7′-(cis-5-(1-pyrrolidinyl)-1,3-dioxan-2-yl)-3,4-dihydro-2H,15′H-spiro[naphthalene-1,22′-[20]oxa[13]thia[1,14]diazatetracyclo [14.7.2.0~3,6~.0~19,24~]pentacosa[16,18,24]trien]-15′-one 13′,13′-dioxide]: the results for the IC50 on Mcl-1/Bim interaction and in the test on OPM-2 (16 h) were 0.000444 µM and 0.065 µM, respectively.
